Active and inactive are the calls of the source. The calls are words filed in the database; no cut-off is given here.
What was measured:
[1] = target: 5-hydroxytryptamine receptor 7 (Homo sapiens, UniProt P34969)
[2] = target: 5-hydroxytryptamine receptor 6 (Homo sapiens, UniProt P50406)
[3] = target: 5-hydroxytryptamine receptor 5A (Homo sapiens, UniProt P47898)
[4] = target: T1, 5-hydroxytryptamine receptor 1F (Homo sapiens) (UniProt P30939); test: Binding affinity to 5HT1F receptor after 1.5 hrs by scintillation counter
T1 sequence (whole entry): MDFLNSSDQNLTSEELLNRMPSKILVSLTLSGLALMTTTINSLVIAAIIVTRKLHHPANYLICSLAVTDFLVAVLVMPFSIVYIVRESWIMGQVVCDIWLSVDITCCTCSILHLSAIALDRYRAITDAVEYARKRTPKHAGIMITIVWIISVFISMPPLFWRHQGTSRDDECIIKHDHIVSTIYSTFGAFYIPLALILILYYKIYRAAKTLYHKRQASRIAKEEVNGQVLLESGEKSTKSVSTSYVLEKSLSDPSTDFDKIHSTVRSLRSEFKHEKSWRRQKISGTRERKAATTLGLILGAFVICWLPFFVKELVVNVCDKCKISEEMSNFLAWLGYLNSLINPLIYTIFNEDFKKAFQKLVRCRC

[5] = target: T2, 5-hydroxytryptamine receptor 2C (Homo sapiens, UniProt P28335)
T2 sequence (P28335 whole entry): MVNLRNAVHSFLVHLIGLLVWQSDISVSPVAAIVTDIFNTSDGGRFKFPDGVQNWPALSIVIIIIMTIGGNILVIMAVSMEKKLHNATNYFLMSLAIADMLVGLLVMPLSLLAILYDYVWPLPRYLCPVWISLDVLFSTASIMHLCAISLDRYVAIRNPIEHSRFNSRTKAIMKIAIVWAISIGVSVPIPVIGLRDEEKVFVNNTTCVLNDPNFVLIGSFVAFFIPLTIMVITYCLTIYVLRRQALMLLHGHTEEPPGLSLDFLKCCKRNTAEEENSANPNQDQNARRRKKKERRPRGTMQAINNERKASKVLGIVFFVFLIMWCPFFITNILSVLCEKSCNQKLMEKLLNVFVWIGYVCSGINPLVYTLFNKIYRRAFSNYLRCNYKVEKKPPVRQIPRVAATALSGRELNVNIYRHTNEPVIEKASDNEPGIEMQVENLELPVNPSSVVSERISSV

5-hydroxytryptamine receptor 7, sequence (P34969 whole entry): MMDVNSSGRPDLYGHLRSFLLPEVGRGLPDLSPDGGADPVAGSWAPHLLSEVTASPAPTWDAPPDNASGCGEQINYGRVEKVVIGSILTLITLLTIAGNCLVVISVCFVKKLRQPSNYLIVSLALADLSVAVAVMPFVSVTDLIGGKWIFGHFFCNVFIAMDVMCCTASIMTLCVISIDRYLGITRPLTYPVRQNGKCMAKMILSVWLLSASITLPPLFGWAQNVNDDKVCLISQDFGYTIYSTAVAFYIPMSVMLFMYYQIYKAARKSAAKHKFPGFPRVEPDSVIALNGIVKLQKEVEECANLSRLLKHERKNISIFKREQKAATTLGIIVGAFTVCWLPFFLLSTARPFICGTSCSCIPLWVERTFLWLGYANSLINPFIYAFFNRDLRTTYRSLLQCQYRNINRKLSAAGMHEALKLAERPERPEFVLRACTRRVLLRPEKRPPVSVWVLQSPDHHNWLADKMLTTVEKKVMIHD
5-hydroxytryptamine receptor 6, sequence (P50406 whole entry): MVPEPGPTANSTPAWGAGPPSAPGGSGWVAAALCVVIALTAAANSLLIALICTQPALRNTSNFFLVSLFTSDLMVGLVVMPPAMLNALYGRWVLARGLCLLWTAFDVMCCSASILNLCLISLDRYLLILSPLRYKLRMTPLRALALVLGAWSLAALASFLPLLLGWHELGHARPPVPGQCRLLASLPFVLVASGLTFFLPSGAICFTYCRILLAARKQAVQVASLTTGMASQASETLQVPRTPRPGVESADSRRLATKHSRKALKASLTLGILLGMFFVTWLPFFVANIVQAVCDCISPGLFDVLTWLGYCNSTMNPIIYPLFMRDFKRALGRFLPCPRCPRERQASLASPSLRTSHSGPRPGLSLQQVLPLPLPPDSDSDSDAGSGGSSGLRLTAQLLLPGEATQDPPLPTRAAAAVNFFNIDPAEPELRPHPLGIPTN
5-hydroxytryptamine receptor 5A, sequence (P47898 whole entry): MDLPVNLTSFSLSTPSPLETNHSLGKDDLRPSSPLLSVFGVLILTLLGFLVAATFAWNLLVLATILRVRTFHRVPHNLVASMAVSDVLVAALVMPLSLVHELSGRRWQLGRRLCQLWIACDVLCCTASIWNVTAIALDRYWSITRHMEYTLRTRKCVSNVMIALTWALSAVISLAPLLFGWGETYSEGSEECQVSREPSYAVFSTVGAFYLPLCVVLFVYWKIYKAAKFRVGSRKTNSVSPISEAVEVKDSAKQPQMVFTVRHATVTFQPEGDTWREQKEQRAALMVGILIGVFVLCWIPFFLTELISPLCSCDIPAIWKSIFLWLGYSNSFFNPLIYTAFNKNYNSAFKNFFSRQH

CNC(=O)c1cc(Oc2ccc(NC(=O)Nc3ccc(Cl)c(C(F)(F)F)c3)cc2)ccn1 [SORAFENIB]
Ki [1]: 7.07 µM
Ki [2]: 6.21 µM
Ki [3]: 3.3 µM
Activity [4]: inactive
Ki [5]: 0.417 µM

— ChEMBL document CHEMBL2163296 (J Med Chem, 2012)
